Each structure is given as a SMILES string.

This assay addresses Fibroblast growth factor receptor (Homo sapiens, UniProt P22607+P11362+P22455+P21802). The assay can be described thus: Inhibition of FGFR (unknown origin) using poly (4:1) glutamate-tyrosine substrate and [gamma32P]ATP incubated for 10 mins by beta plate counter based assay. The format is protein assay.

Compound `O=c1ccc2cnc(Nc3ccccc3)nc2n1C1CCCC1` showed a 50% inhibitory concentration (IC50) of 2.98 µM.

These data come from ChEMBL document CHEMBL3880393, “2-(Pyridin-2-ylamino)-pyrido[2,3-d]pyrimidin-7-ones” (2003).
